In series [1] the target is T1, R-state His^B10 Zn^2+ site of insulin R6 hexamers (Homo sapiens, UniProt P01308).
T1 construct: human insulin comprising additional amino acids, i.e. more than 51 amino acids
The experiment in a line: TZD-assay: fluorescence displacement of 5-(4-dimethylaminobenzylidene)thiazolidine-2,4-dione from insulin R6 hexamers. The series is classed as binding. The protocol: However, ligands with substantially higher affinity for the His^B10 Zn^2+-site may be found and characterized by using a fluorescence based competition assay which is based on the displacement of 5-(4-dimethylaminobenzylidene)-thiazolidine-2,4-dione from the R-state His^B10 Zn^2+-site by the incoming ligand in question.
TZD-Assay for Quantitation of Ligands Binding to the R-State His^B10 Zn^2+:
The binding affinity of ligands to the metal site of insulin R6 hexamers are measured in a fluorescense based displacement assay. The fluorescence of 5-(4-dimethylaminobenzylidene)thiazolidine-2,4-dione (TZD) which is a ligand for the metal site of insulin R6 is quenched upon displacement from the metal site to the solution. Titration of a ligand to a stock solution of insulin R6 hexamers with this compound mounted in the metal site allows the binding affinity of these ligands to be determined measuring the fluorescence at 455 nm upon excitation at 410 nm.
Stock solution: 0.02 mM human insulin, 0.007 mM Zn-acetate, 40 mM phenol, 0.01 mM TZD in 50 mM tris buffer adjusted to pH=8.0 with NaOH/ClO4^−.
The ligand is dissolved in DMSO to a concentration of 5 mM and added in aliquots to the stock solution to final concentrations of 0-250 μM.
Fluorescence measurements were carried out on a Perkin Elmer Spectrofluorometer LS50B. The main absorption band was excited at 410 nm and emission was detected at 455 nm. The resolution was 10 nm and 2.5 nm for excitation and emission, respectively.
This equation is fitted to the datapoints ΔF(455 nm))=ΔFmax*[ligand]free/(KD(app)*(1+[TZD]/KTZD)+[ligand]free)) KD(app) is the apparent dissociation constant and Fmax is the fluorescence at maximal ligand concentration. The value of KTZD is measured separately to 230 nM
Two different fitting-procedures can be used. One in which both parameters, KD(app) and Fmax, are adjusted to best fit the data and a second in which the value of Fmax is fixed (Fmax=1) and only KD(app) is adjusted. The given data are from the second fitting procedure. The Solver module of Microsoft Excel can be used to generate the fits from the datapoints.

The nature of series [2]: NPH-insulin crystallisation in the presence of ligand (co-crystallisation). Format: physicochemical. The conditions noted are these: human insulin NPH crystals grown overnight with ligand equimolar to Zn2+, pH 7.3. The protocol: Preparation of NPH-insulin in the presence of ligands for the His^B10 Zn^2+-site of the R-state insulin hexamer.
Preparations are prepared by mixing equal volumes of the following two solutions: a) 1.2 mM human insulin, 0.46 mM Zn^2+, 28 mM phosphate, 1.6% glycerol, 0.15% m-cresol, 0.065% phenol, and 0.46 mM ligand for the HisB10 Zn^2+-site (see below), optionally the ligand was added as a 9.2 mM DMSO solution, pH 7.5; and b) 0.636 mg/mL protamine sulphate 1.6% glycerol, 0.15% m-cresol, 0.065% phenol, pH 6. The NPH-crystals grow overnight from the resulting suspension, pH 7.3.

Series [3] addresses T2, metal site of insulin R6 hexamers (Homo sapiens, UniProt P01308).
T2 construct: human insulin comprising additional amino acids, i.e. more than 51 amino acids
The conditions noted are these: taken from Huang et al., 1997, Biochemistry 36, 9878-9888; read-out: K4H3N; cited from earlier work.

[4] abbreviates: human insulin R6 hexamers, 40 mM phenol, tris pH 8.0, apparent KD, fit with Fmax fixed, read-out: Kd as observed in the 5-(4-imethylaminobenzylidene)-thiazolidine-2,4-dione assay.

Where two headings read alike, the source gives them in different places.

The melting point is the temperature, or range, at which the solid turns liquid.

T1 sequence (P01308 25-54 limits assumed): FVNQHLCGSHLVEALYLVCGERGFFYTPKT
T1 sequence (P01308 90-110 limits assumed): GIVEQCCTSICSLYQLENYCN
T2 sequence (P01308 25-54 limits assumed): as the sequence (P01308 25-54 limits assumed) above

Take `O=C1NC(=O)/C(=C/c2cc3ccccc3o2)S1` [Example 238, 5-Benzofuran-2-ylmethylenethiazolidine-2,4-dione]: the melting point lay in the range of 265 to 266 °C.

Turning to `CN(C)c1ccc(C=C2SC(O)=NC2=O)cc1` [TZD, 5-(4-dimethylaminobenzylidene)-thiazolidine-2,4-dione, reference compound], in series [1] (measured separately, read-out: KTZD), the Kd worked out at 230 nM.

As for `CN(C)c1ccc(/C=C/C=C2\SC(=O)NC2=O)cc1` [Example 239, 5-[3-(4-Dimethylaminophenyl)allylidene]thiazolidine-2,4-dione], the melting point fell in the range of 259 to 263 °C.

Turning to `COc1cccc(OC)c1/C=C1\SC(=O)NC1=O` [Example 236, 5-(2,6-Dimethoxybenzylidene)thiazolidine-2,4-dione], the melting point lay in the range of 241 to 242 °C.

As to `COc1cc(O)cc(OC)c1/C=C1\SC(=O)NC1=O` [Example 234, 5-(4-Hydroxy-2,6-dimethoxybenzylidene)thiazolidine-2,4-dione], the melting point lay within 331 to 333 °C.

Consider `O=C(O)c1ccc(Cn2c3ccccc3c3cc(-c4nnn[nH]4)ccc32)cc1` [4-[3-(1H-Tetrazol-5-yl)-carbazol-9-ylmethyl]-benzoic acid], for which the Kd in series [1] (setting [4]) stood at 174 nM. Further, the NPH-insulin crystal size in series [2] was under 2 μ.

In the case of `O=C1NC(=O)/C(=C/c2ccc3cc(O)ccc3c2)S1` [Example 171, 5-(6-Hydroxy-2-naphthylmethylene) thiazolidine-2,4-dione], the melting point fell in the range of 310 to 314 °C.

For `c1ccc(Cn2c3ccccc3c3cc(-c4nnn[nH]4)ccc32)cc1` [9-Benzyl-3-(1H-tetrazol-5-yl)-9H-carbazole], in series [1] (setting [4]), the Kd was determined as 68 nM. Moreover, the NPH-insulin crystal size in series [2] is on record as 1-3 μ.

As to `O=C(O)c1ccc(O)c([N+](=O)[O-])c1` [Example 4H3N, 4-hydroxy-3-nitrobenzoic acid], the Kd in series [3] is 50000 nM.

Turning to `Cc1cc(/C=C2\SC(=O)NC2=O)c(C)c2c1[nH]c1ccccc12` [5-(1,4-Dimethyl-9H-carbazol-3-ylmethylene)-thiazolidine-2,4-dione], in series [1] (setting [4]), the Kd is under 10 nM. In addition, in series [2], the NPH-insulin crystal size is under 2 μ.

As to `Cc1cccc(C)c1/C=C1\SC(=O)NC1=O` [Example 235, 5-(2,6-Dimethylbenzylidene)thiazolidine-2,4-dione], the melting point was 104 to 105 °C.

In the case of `c1ccc(-c2ccc(Cn3ccc4cc(-c5nnn[nH]5)ccc43)cc2)cc1` [1-(4-Phenylbenzyl)-5-(1H-tetrazol-5-yl)-1H-indole], the Kd in series [1] (setting [4]) is 38 nM. Besides, in series [2], the NPH-insulin crystal size was under 2 μ.

For `O=C1NC(=O)C(Cc2cccc3ccccc23)S1` (centres unmarked) [5-Napthalen-1-ylmethyl-thiazolidine-2,4-dione], in series [1] (setting [4]), the Kd is 99 nM. Moreover, in series [2], the NPH-insulin crystal size amounted to 2 μ.

`O=C1NC(=O)C(=Cc2c[nH]c3ccc([N+](=O)[O-])cc23)S1` [Example 199, 5-(5-Nitro-1H-indol-3-ylmethylene)thiazolidine-2,4-dione] returned a melting point of 330 to 333 °C.

In the case of `Cc1[nH]c2ccccc2c1/C=C1\SC(=O)NC1=O` [5-(2-methyl-1H-indol-3-ylmethylene) thiazolidine-2,4-dione], the Kd in series [1] (setting [4]) is under 10 nM. The NPH-insulin crystal size in series [2] is 2-6 μ.

In turn, `COc1cc(/C=C2\SC(=O)NC2=O)cc(I)c1O` [Example 167, 5-(4-Hydroxy-3-iodo-5-methoxybenzylidene)thiazolidine-2,4-dione] returned a melting point of 256 °C.

Take `c1cc(COc2ccc3ccccc3c2)cc(-c2nnn[nH]2)c1` [Example 572, 5-(3-(Naphthalen-2-yloxymethyl)-phenyl)-1H-tetrazole]: the melting point lay within 200 to 202 °C.

`COc1cc(OCc2c(F)cccc2[N+](=O)[O-])cc(OC)c1/C=C1\SC(=O)NC1=O` [Example 237, 5-[4-(2-Fluoro-6-nitrobenzyloxy)-2,6-dimethoxybenzylidene]thiazolidine-2,4-dione] registered a melting point of 255 to 256 °C.

As for `CC(/C=C1\SC(=O)NC1=O)=C\c1ccccc1` [Example 240, 5-(2-Methyl-3-phenylallylidene)thiazolidine-2,4-dione], the melting point lay in the range of 203 to 210 °C.

Turning to `O=C(O)COc1ccc(/C=C2\SC(=O)NC2=O)c2ccccc12` [[4-(2,4-Dioxothiazolidin-5-ylidenemethyl)-naphthalen-1-yloxy]-acetic acid], the Kd in series [1] (setting [4]) was found to be 11 nM. The NPH-insulin crystal size in series [2] is reported as 2-10 μ.

Take `O=C1NC(=O)/C(=C/c2cc3ccccc3[nH]c2=O)S1` [Example 242, 5-(2-Oxo-1,2-dihydroquinolin-3-ylmethylene)thiazolidine-2,4-dione]: the melting point lay within 338 to 347 °C.

For `O=C1NC(=O)/C(=C/c2cccc3ccccc23)S1` [5-Napthalen-1-ylmethylene-thiazolidine-2,4-dione], the Kd in series [1] (setting [4]) was determined as 21 nM. In series [2], the NPH-insulin crystal size is reported as 4-10 μ.

`O=C(O)c1cc2cc(Br)ccc2cc1O` [7-Bromo-3-hydroxy-2-napthoic acid]: the Kd in series [1] (setting [4]) worked out at 264 nM. For the same compound, the NPH-insulin crystal size in series [2] was 5-20 μ.

These data come from patent US20060258561A1, “Novel NPH insulin preparations” (Novo Nordisk A/S, priority 2003, published 2006).
